The subject of assay [1] is HCV genotype 1a (H77 strain) replicon in HUH-7 cells. The assay can be described thus: HCV replicon luciferase reporter assay, genotype 1a. As to conditions: Hepatitis C virus, Huh-7, 72 h, HCV genotype 1a replicon luciferase, 3 days incubation, read-out: LE_1a (EC50, range). It counts as cell-based. An outline of the steps: (§1)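 Replicon inhibition for both genotypes was measured as Renilla luciferase signal (EnduRen, 7.5 μM final, 2 h) after 3-day, 37° C exposure of replicon-bearing HUH-7 cells in 4% FCS DMEM, 0.5% DMSO. The 1b construct carries S1179I; the 1a H77 construct carries P1496L and S2204I. Twenty-point, 3-fold dilutions were fitted four-parametrically for EC50, and CC50 was taken from multiplexed Cell Titer-Blue.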
Background: Replicon systems follow genome replication, usually without infectious particles.

The test system of assay [2] is HCV genotype 1b (Con1) replicon in HUH-7 cells. Description: HCV replicon luciferase reporter assay, genotype 1b. As to conditions: Hepatitis C virus, Huh-7, 72 h, HCV genotype 1b replicon luciferase, 3 days incubation, read-out: LE_1b (EC50, range). In kind it is cell-based. An outline of the steps:
as §1

Where two headings read alike, the source gives them in different places.

The term EC50 denotes the concentration at which the effect is half-maximal. `COc1ccc2c(O[C@@H]3C[C@H]4C(=O)N[C@]5(C(=O)NS(=O)(=O)C6(Cl)CC6)C[C@H]5/C=C\CC[C@@H](C)C[C@@H](C)[C@H](NC(=O)OC(C)(C)C)C(=O)N4C3)ncc(OC)c2c1` [Compound 4125, tert-butyl (2R,6S,7R,9R,13aS,14aR,16aS,Z)-14a-(1-chlorocyclopropylsulfonylcarbamoyl)-2-(4,6-dimethoxyisoquinolin-1-yloxy)-7,9-dimethyl-5,16-dioxo-1,2,3,5,6,7,8,9,10,11,13a,14,14a,15,16,16a-hexadecahydrocyclopropa[e]pyrrolo[1,2-a][1,4]diazacyclopentadecin-6-ylcarbamate]: the EC50 in assay [1] and in assay [2] was under 5.46 nM each time.

Regarding `CCC1(S(=O)(=O)NC(=O)[C@@]23C[C@H]2/C=C\CC[C@H](C)C[C@@H](C)[C@H](NC(=O)OC(C)(C)C(F)(F)F)C(=O)N2C[C@H](Oc4nccc5cc(OC)c(F)cc45)C[C@H]2C(=O)N3)CC1` [Compound 4126], the half-maximal effective concentration (EC50) in assay [1] (GETYPE1A) and in assay [2] (GETYPE1B) was under 5.46 nM throughout.

For the compound `CCC1(S(=O)(=O)NC(=O)[C@@]23C[C@H]2/C=C\CC[C@@H](C)C[C@@H](C)[C@H](NC(=O)OC(C)(C)C(F)(F)F)C(=O)N2C[C@H](Oc4nccc5cc(OC)c(F)cc45)C[C@H]2C(=O)N3)CC1` [Compound 4127], the EC50 was 4.82 to 103 nM in assay [1] (GETYPE1A) and under 5.46 nM in assay [2] (GETYPE1B).

Turning to `COc1ccc2c(O[C@@H]3C[C@H]4C(=O)N[C@]5(C(=O)NS(=O)(=O)C6(CF)CC6)C[C@H]5/C=C\CC[C@@H](C)C[C@@H](C)[C@H](NC(=O)OC(C)(C)C(F)(F)F)C(=O)N4C3)nc(-c3ccc(OC(C)C)cc3)cc2c1` [Compound 4128], the EC50 in assay [1] (GETYPE1A) and in assay [2] (GETYPE1B) was under 5.46 nM each time.

`COc1cnc(O[C@@H]2C[C@H]3C(=O)N[C@]4(C(=O)NS(=O)(=O)C5(CF)CC5)C[C@H]4/C=C\CC[C@@H](C)C[C@@H](C)[C@H](NC(=O)OC(C)(C)C(F)(F)F)C(=O)N3C2)c2cccc(Cl)c12` [Compound 4129]: the half-maximal effective concentration (EC50) in assay [1] (GETYPE1A) and in assay [2] (GETYPE1B) was under 5.46 nM in each case.

As to `C[C@@H]1CC/C=C\[C@@H]2C[C@@]2(C(=O)NS(=O)(=O)C2(CF)CC2)NC(=O)[C@@H]2C[C@@H](Oc3cnc4ccccc4n3)CN2C(=O)[C@@H](NC(=O)OC(C)(C)C)[C@H](C)C1` [Compound 4130, tert-butyl (2R,6S,7R,9R,13aS,14aR,16aS,Z)-14a-(1-(fluoromethyl)cyclopropylsulfonylcarbamoyl)-7,9-dimethyl-5,16-dioxo-2-(quinoxalin-2-yloxy)-1,2,3,5,6,7,8,9,10,11,13a,14,14a,15,16,16a-hexadecahydrocyclopropa[e]pyrrolo[1,2-a][1,4]diazacyclopentadecin-6-ylcarbamate], the concentration for a half-maximal effect (EC50) in assay [1] and in assay [2] was 4.82 to 103 nM each time.

As to `COc1ccc2c(O[C@@H]3C[C@H]4C(=O)N[C@]5(C(=O)NS(=O)(=O)C6(C)CC6)C[C@H]5/C=C\CC[C@@H](C)C[C@@H](C)[C@H](NC(=O)OC(C)(C)C)C(=O)N4C3)ncc(N3C[C@@H](C)O[C@@H](C)C3)c2c1` [Compound 4131, tert-butyl (2R,6S,7R,9R,13aS,14aR,16aS,Z)-2-(4-((2S,6R)-2,6-dimethylmorpholino)-6-methoxyisoquinolin-1-yloxy)-7,9-dimethyl-14a-(1-methylcyclopropylsulfonylcarbamoyl)-5,16-dioxo-1,2,3,5,6,7,8,9,10,11,13a,14,14a,15,16,16a-hexadecahydrocyclopropa[e]pyrrolo[1,2-a][1,4]diazacyclopentadecin-6-ylcarbamate], the EC50 in assay [1] and in assay [2] was under 5.46 nM each time.

Turning to `COc1ccc2c(O[C@@H]3C[C@H]4C(=O)N[C@]5(C(=O)NS(=O)(=O)C6(C)CC6)C[C@H]5/C=C\CC[C@@H](C)C[C@@H](C)[C@H](NC(=O)OC(C)(C)C(F)(F)F)C(=O)N4C3)ncc(N3C[C@@H](C)O[C@@H](C)C3)c2c1` [Compound 4132], the EC50 in assay [1] (GETYPE1A) and in assay [2] (GETYPE1B) was under 5.46 nM throughout.

Consider `C[C@@H]1CC/C=C\[C@@H]2C[C@@]2(C(=O)NS(=O)(=O)C2(C)CC2)NC(=O)[C@@H]2C[C@@H](Oc3ncc(OC(=O)OC(C)(C)C(F)(F)F)c4ccccc34)CN2C(=O)[C@@H](NC(=O)OC(C)(C)C(F)(F)F)[C@H](C)C1` [Compound 4133], for which the EC50 in assay [1] (GETYPE1A) was 4.82 to 103 nM; in assay [2] (GETYPE1B), under 5.46 nM.

On to `C=COc1cnc(O[C@@H]2C[C@H]3C(=O)N[C@]4(C(=O)NS(=O)(=O)C5(C)CC5)C[C@H]4/C=C\CC[C@@H](C)C[C@@H](C)[C@H](NC(=O)OC(C)(C)C)C(=O)N3C2)c2ccccc12` [Compound 4134, tert-butyl (2R,6S,7R,9R,13aS,14aR,16aS,Z)-7,9-dimethyl-14a-(1-methylcyclopropylsulfonylcarbamoyl)-5,16-dioxo-2-(4-(vinyloxy)isoquinolin-1-yloxy)-1,2,3,5,6,7,8,9,10,11,13a,14,14a,15,16,16a-hexadecahydrocyclopropa[e]pyrrolo[1,2-a][1,4]diazacyclopentadecin-6-ylcarbamate], for which the EC50 in assay [1] and in assay [2] was under 5.46 nM in each case.

`COc1ccc2c(O[C@@H]3C[C@H]4C(=O)N[C@]5(C(=O)NS(=O)(=O)C6(C)CC6)C[C@H]5/C=C\CC[C@@H](C)C[C@@H](C)[C@H](NC(=O)OC(C)(C)C(F)(F)F)C(=O)N4C3)ncc(N3CCOCC3)c2c1` [Compound 4135]: the EC50 in assay [1] (GETYPE1A) and in assay [2] (GETYPE1B) was under 5.46 nM throughout.

With `CCOc1cnc(O[C@@H]2C[C@H]3C(=O)N[C@]4(C(=O)NS(=O)(=O)C5(C)CC5)C[C@H]4/C=C\CC[C@@H](C)C[C@@H](C)[C@H](NC(=O)OC(C)(C)C)C(=O)N3C2)c2ccc(OC)cc12` [Compound 4136, tert-butyl (2R,6S,7R,9R,13aS,14aR,16aS,Z)-2-(4-ethoxy-6-methoxyisoquinolin-1-yloxy)-7,9-dimethyl-14a-(1-methylcyclopropylsulfonylcarbamoyl)-5,16-dioxo-1,2,3,5,6,7,8,9,10,11,13a,14,14a,15,16,16a-hexadecahydrocyclopropa[e]pyrrolo[1,2-a][1,4]diazacyclopentadecin-6-ylcarbamate], the 50% effective concentration (EC50) in assay [1] and in assay [2] was under 5.46 nM throughout.

Regarding `COc1ccc2c(O[C@@H]3C[C@H]4C(=O)N[C@]5(C(=O)NS(=O)(=O)C6(C)CC6)C[C@H]5/C=C\CC[C@@H](C)C[C@@H](C)[C@H](NC(=O)OC(C)(C)C)C(=O)N4C3)ncc(N3CCOCC3)c2c1` [Compound 4137, tert-butyl (2R,6S,7R,9R,13aS,14aR,16aS,Z)-2-(6-methoxy-4-morpholinoisoquinolin-1-yloxy)-7,9-dimethyl-14a-(1-methylcyclopropylsulfonylcarbamoyl)-5,16-dioxo-1,2,3,5,6,7,8,9,10,11,13a,14,14a,15,16,16a-hexadecahydrocyclopropa[e]pyrrolo[1,2-a][1,4]diazacyclopentadecin-6-ylcarbamate], the EC50 in assay [1] and in assay [2] was under 5.46 nM each time.

For the compound `CCOc1cnc(O[C@@H]2C[C@H]3C(=O)N[C@]4(C(=O)NS(=O)(=O)C5(C)CC5)C[C@H]4/C=C\CC[C@@H](C)C[C@@H](C)[C@H](NC(=O)Oc4ccc(F)cc4F)C(=O)N3C2)c2ccccc12` [Compound 4138, 2,4-difluorophenyl (2R,6S,7R,9R,13aS,14aR,16aS,Z)-2-(4-ethoxyisoquinolin-1-yloxy)-7,9-dimethyl-14a-(1-methylcyclopropylsulfonylcarbamoyl)-5,16-dioxo-1,2,3,5,6,7,8,9,10,11,13a,14,14a,15,16,16a-hexadecahydrocyclopropa[e]pyrrolo[1,2-a][1,4]diazacyclopentadecin-6-ylcarbamate], the 50% effective concentration (EC50) in assay [1] and in assay [2] was 4.82 to 103 nM throughout.

With `CCOc1cnc(O[C@@H]2C[C@H]3C(=O)N[C@]4(C(=O)NS(=O)(=O)C5(C)CC5)C[C@H]4/C=C\CC[C@@H](C)C[C@@H](C)[C@H](NC(=O)Oc4ccccc4F)C(=O)N3C2)c2ccccc12` [Compound 4139, 2-fluorophenyl (2R,6S,7R,9R,13aS,14aR,16aS,Z)-2-(4-ethoxyisoquinolin-1-yloxy)-7,9-dimethyl-14a-(1-methylcyclopropylsulfonylcarbamoyl)-5,16-dioxo-1,2,3,5,6,7,8,9,10,11,13a,14,14a,15,16,16a-hexadecahydrocyclopropa[e]pyrrolo[1,2-a][1,4]diazacyclopentadecin-6-ylcarbamate], the EC50 in assay [1] and in assay [2] was 4.82 to 103 nM each time.

Take `CCOc1cnc(O[C@@H]2C[C@H]3C(=O)N[C@]4(C(=O)NS(=O)(=O)C5(C)CC5)C[C@H]4/C=C\CC[C@@H](C)C[C@@H](C)[C@H](NC(=O)Oc4ccccc4)C(=O)N3C2)c2ccccc12` [Compound 4140, phenyl (2R,6S,7R,9R,13aS,14aR,16aS,Z)-2-(4-ethoxyisoquinolin-1-yloxy)-7,9-dimethyl-14a-(1-methylcyclopropylsulfonylcarbamoyl)-5,16-dioxo-1,2,3,5,6,7,8,9,10,11,13a,14,14a,15,16,16a-hexadecahydrocyclopropa[e]pyrrolo[1,2-a][1,4]diazacyclopentadecin-6-ylcarbamate]: the EC50 in assay [1] and in assay [2] was under 5.46 nM each time.
